Reference: patent publication US20230348520A1, “COMPOUND COMPRISING BETA-NICOTINAMIDE MONONUCLEOTIDE OR PHARMACOLOGICALLY ACCEPTABLE SALT THEREOF, AND METHOD FOR EVALUATING QUALITY AND METHOD FOR ASSESSING ENZYMATIC REACTIVITY OF SAID COMPOUND” (ORIENTAL YEAST CO., LTD., priority 2020, published 2023)

Tests used:
[1] = target: R-LDH5 (lactate dehydrogenase (LDH) 5, SEQ ID NO: 1, derived from skeletal muscle) (Oryctolagus cuniculus, UniProt P13491, L277I/T249S); assay: Evaluation of enzymatic reactivity with lactate dehydrogenase R-LDH5 (Test Examples 1 and 2); assay type: biochemical; conditions: 19 mM β-NMN in R1 reagent; R-LDH5 245 U/mL final; 37° C.; 340 nm; one unit = 0.1 mAbs change in absorbance per minute; average of three measurements
Source text: The lactate dehydrogenase is preferably lactate dehydrogenase derived from mammalian skeletal muscle, and more preferably lactate dehydrogenase (LDH) 5 (hereinafter may be referred to as “R-LDHS”). The R-LDHS has an amino acid sequence as set forth in SEQ ID NO: 1, is composed of a tetramer of sub-units, and is derived from skeletal muscle. Other lactate dehydrogenases of any mammal can also be used, such as porcine lactate dehydrogenase (LDH) 1, human lactate dehydrogenase (LDH) 1, and human lactate dehydrogenase (LDH) 5. The LDH catalyzes dehydrogenation of lactic acid as a substrate, to convert the lactic acid to pyruvic acid. At this time, the β-NMN is converted to a reduced form of β-NMN (see FIG. 1).
In the present invention, the enzymatic reactivity refers to a value obtained through measurement using the following reagents and method.
(The purity of the β-NMN in a measurement sample is assumed to be 100%. Also, the β-NMN is dissolved in an 80 mM sodium carbonate solution in advance.)
The enzyme solution is prepared so that the LDH is to be 245 U/mL as a final concentration in a reaction liquid.
In the present invention, the activity unit (U) of the LDH is an activity unit measured by the human LDH measurement method according to IFCC when using NAD as a coenzyme.
An enzyme activity is measured using a 7180 type Hitachi automatic analyzer (obtained from Hitachi High-Tech Corporation). Measurement parameters are as follows.
Analysis method: Rate A Measurement wavelength (sub/main): 405 nm/340 nm Reaction duration: 10 minutes Photometric points: 20 to 24 Sample liquid (enzyme solution): 18 μL R1 reagent: 120 μL R2 reagent: 87 μL
18 μL of the enzyme solution and 120 μL of the R1 reagent are mixed. The resulting mixture is incubated at 37° C. for 4.5 minutes (photometric points 1 to 16), followed by addition of 87 μL of the R2 reagent, to initiate reaction (photometric point 17). From the absorbance of the measurement sample one to two minutes after initiation of the reaction (photometric points 20 to 24), the absorbance of water (blank) at the same photometric points is subtracted, to calculate a value of change in absorbance per minute (ΔmAbs/min). Regarding the activity unit (the unit of reactivity with the lactate dehydrogenase R-LDH5), 0.1 mAbs as the value of change in absorbance per minute is defined as one unit.
By the following method, the β-NMN compound of the present invention (Production Example 1) and β-NMN products 1 to 3 were measured for the enzymatic reactivity with R-LDHS (SEQ ID NO: 1). Note that, the measurement results are average values in the measurement performed three times.
(The purity of the β-NMN in a measurement sample was assumed to be 100%. Also, the β-NMN was dissolved in an 80 mM sodium carbonate solution in advance.)
The enzyme solution was prepared so that the R-LDH5 was to be 245 U/mL as a final concentration in a reaction liquid.
An enzyme activity was measured using a 7180 type Hitachi automatic analyzer (obtained from Hitachi High-Tech Corporation). Measurement parameters are as follows.
Analysis method: Rate A Measurement wavelength (sub/main): 405 nm/340 nm Reaction duration: 10 minutes Photometric points: 20 to 24 Sample liquid (enzyme solution): 18 μL
18 μL of the enzyme solution and 120 μL of the R1 reagent were mixed. The resulting mixture was incubated at 37° C. for 4.5 minutes (photometric points 1 to 16), followed by addition of 87 μL of the R2 reagent, to initiate reaction (photometric point 17). Measurements were taken for five minutes after initiation of the reaction. From the absorbance of the measurement sample at minute one to minute two after the initiation (photometric points 20 to 24), the absorbance of water (blank) at the same photometric points was subtracted, to calculate a value of change in absorbance per minute (ΔmAbs/min). Regarding the activity unit, 0.1 mAbs as the value of change in absorbance per minute was defined as one unit. […]

[2] = target: human lactate dehydrogenase (LDH) 1 (SEQ ID NO: 2) (Homo sapiens, UniProt P07195); assay: Dependency of LDH activity value on β-NMN compound concentration, human LDH1 (Test Example 4); assay type: biochemical; conditions: human LDH1 45 U/mL; 0-200 mM β-NMN in R1 reagent; compared with Production Example 1; FIGS. 4D to 4F
Chain of human lactate dehydrogenase (LDH) 1 (SEQ ID NO: 2) (P07195 whole entry): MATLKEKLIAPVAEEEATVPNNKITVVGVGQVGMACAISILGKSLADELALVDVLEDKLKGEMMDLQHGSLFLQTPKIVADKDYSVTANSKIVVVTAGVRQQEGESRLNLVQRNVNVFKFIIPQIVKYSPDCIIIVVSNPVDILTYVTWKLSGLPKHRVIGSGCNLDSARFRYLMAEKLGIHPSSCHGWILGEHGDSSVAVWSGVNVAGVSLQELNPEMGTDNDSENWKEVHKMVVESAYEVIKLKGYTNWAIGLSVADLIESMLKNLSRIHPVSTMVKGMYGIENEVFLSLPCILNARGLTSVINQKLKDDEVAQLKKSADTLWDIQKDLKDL
Method: (§1) In order to confirm dependency of a LDH activity value on the β-NMN compound concentration, the β-NMN compound produced in Production Example 1 and β-NMN products 1 to 3 the same as those used in Test Example 1 were used for measurement of an enzyme activity of LDH at varied concentrations of the β-NMN in the R1 reagent.
(§2) The enzyme activity of LDH was measured in the same manner as in [Evaluation of enzymatic reactivity] of Test Example 1 except that the following R1 reagent and enzyme solution were used, to calculate a value of change in absorbance per minute (ΔmAbs/min). Regarding as 100% the activity value of LDH when the β-NMN compound of Production Example 1 was used at 200 mM, the relative activity values (%) in each NMN at each concentration are presented in FIGS. 4A to 4F (FIGS. 4A to 4C: R-LDH5 and FIGS. 4D and 4F: human LDH1). Note that, the measurement results are average values in the measurement performed three times.
(§3) (The purity of the β-NMN in a measurement sample was assumed to be 100%. Also, the β-NMN was dissolved in a 100 mM sodium carbonate solution in advance.)
An enzyme solution was prepared so that the LDH was to be 45 U/mL as a final concentration in a reaction liquid.

[3] = target: R-LDH5 (lactate dehydrogenase, SEQ ID NO: 1) (Oryctolagus cuniculus, UniProt P13491, L277I/T249S); assay: Dependency of LDH activity value on β-NMN compound concentration, R-LDH5 (Test Example 4); assay type: biochemical; conditions: R-LDH5 245 U/mL; for relative activity value of LDH, dependency on β-NMN concentration: 0-200 mM β-NMN in R1 reagent, compared with Production Example 1, FIGS. 4B, 4C
Method: as §1, §2, §3
An enzyme solution was prepared so that the LDH was to be 245 U/mL as a final concentration in a reaction liquid.

HEK293 cells [4] = assay: Intracellular NAD content in culture cells (Test Example 5); assay type: cell-based; conditions: nonadherent HEK293 cells; 0.1 mM β-NMN; shake-cultured seven days without exchange of the medium; FIGS. 6A, 6B
Method: In order to evaluate biological activities of the β-NMN compounds of Production Example 1 and the β-NMN product 3, culture cells were cultured in a medium containing the β-NMN compound, to measure change in intracellular NAD.
The culture cells used were HEK293 cells that had been treated to be nonadherent. The medium used was FreeStyle™ 293 Expression Medium (obtained from Thermo Fisher Scientific).
First, the HEK293 cells, which had been treated to be nonadherent, were disseminated in the medium so as to have a concentration of 1×10^6 cells/mL. The resulting medium was dispensed into six 125 mL-flasks by 30 mL each. The flasks were supplemented with the β-NMN compounds of Production Example 1 and the β-NMN product 3 so as to have a final concentration of 0 or 0.1 mM. Without exchange of the medium, the cells were shake-cultured for seven days in a CO2 incubator at 37° C.
After shake-culturing for seven days, the cells and the culture supernatant were recovered for various analyses. […] Specifically, the recovered cells were weighed and were extracted with Extraction buffer attached to a kit, and the resulting extract was measured for NAD. The intracellular NAD content was calculated based on a calibration curve obtained by measuring NAD solutions of various concentrations.

HEK293 cells [5] = assay: Cytotoxicity rate from intra- and extracellular AST activities in culture cells (Test Example 5); assay type: cell-based; conditions: nonadherent HEK293 cells; 0.1 mM β-NMN; shake-cultured seven days without exchange of the medium; FIGS. 5A, 5B

NC(=O)c1ccc[n+]([C@@H]2O[C@H](COP(=O)([O-])O)[C@@H](O)[C@H]2O)c1 [Production Example 3, β-nicotinamide mononucleotide]
Enzymatic reactivity (unit) [1]: 38 unit

NC(=O)c1ccc[n+]([C@@H]2O[C@H](COP(=O)([O-])O)[C@@H](O)[C@H]2O)c1 [β-NMN product 3, β-nicotinamide mononucleotide]
relative activity value of LDH, dependency on β-NMN concentration [2]: larger differences in the activity value from the β-NMN compound of Production Example 1 as the β-NMN concentration increased | relative activity value of LDH, dependency on β-NMN concentration [3]: the difference in the activity value from the β-NMN compound of Production Example 1 became larger as the β-NMN concentration increased | Enzymatic reactivity (unit) [1]: 26 unit

NC(=O)c1ccc[n+]([C@@H]2O[C@H](COP(=O)([O-])O)[C@@H](O)[C@H]2O)c1 [Production Example 2, β-nicotinamide mononucleotide]
Enzymatic reactivity (unit) [1]: 40 unit

NC(=O)c1ccc[n+]([C@@H]2O[C@H](COP(=O)([O-])O)[C@@H](O)[C@H]2O)c1 [Production Example 1, β-nicotinamide mononucleotide]
intracellular NAD content (HEK293 cells [4]): higher when the β-NMN compound of Production Example 1 was added than when the β-NMN compound of the β-NMN product 3 was added | cytotoxicity rate determined based on intra- and extracellular AST activities (HEK293 cells [5]): lower when the β-NMN compound of Production Example 1 was added than when the β-NMN compound of the β-NMN product 3 was added | Enzymatic reactivity (unit) [1]: 39 unit

NC(=O)c1ccc[n+]([C@@H]2O[C@H](COP(=O)([O-])O)[C@@H](O)[C@H]2O)c1 [Production Example 4, β-nicotinamide mononucleotide]
Enzymatic reactivity (unit) [1]: 35 unit

NC(=O)c1ccc[n+]([C@@H]2O[C@H](COP(=O)([O-])O)[C@@H](O)[C@H]2O)c1 [β-NMN product 1, β-nicotinamide mononucleotide]
relative activity value of LDH, dependency on β-NMN concentration [2]: larger differences in the activity value from the β-NMN compound of Production Example 1 as the β-NMN concentration increased | enzymatic activity of LDH at a β-NMN concentration of 200 mM ([3]; 200 mM β-NMN in R1 reagent, FIG. 4A): could not be measured | Enzymatic reactivity (unit) [1]: 23 unit

NC(=O)c1ccc[n+]([C@@H]2O[C@H](COP(=O)([O-])O)[C@@H](O)[C@H]2O)c1 [β-NMN product 2, β-nicotinamide mononucleotide]
relative activity value of LDH, dependency on β-NMN concentration [2]: larger differences in the activity value from the β-NMN compound of Production Example 1 as the β-NMN concentration increased | relative activity value of LDH, dependency on β-NMN concentration [3]: the difference in the activity value from the β-NMN compound of Production Example 1 became larger as the β-NMN concentration increased | Enzymatic reactivity (unit) [1]: 27 unit
